Measurements published in PubChem BioAssay (NCI).
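Five concentrations, 48 hours, 96-well plates. The concentration for 50% growth inhibition is given as GI50. TGI: total growth inhibition.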

How the values were obtained:
Experiment in all cases: inhibition of tumour cell growth, NCI panel, 48 h
MDA-N = test system: MDA-N
SF-268 CNS = test system: SF-268 CNS
SK-MEL-5 melanoma = test system: SK-MEL-5 melanoma
TK-10 renal = test system: TK-10 renal
SNB-19 CNS = test system: SNB-19 CNS
HOP-62 NSCLC = test system: HOP-62 NSCLC
MCF7 breast = test system: MCF7 breast
NCI-H460 lung = test system: NCI-H460 lung
DU-145 prostate = test system: DU-145 prostate
A549 NSCLC = test system: A549 NSCLC
IGROV1 ovarian = test system: IGROV1 ovarian
UO-31 renal = test system: UO-31 renal
UACC-62 melanoma = test system: UACC-62 melanoma
RXF 393 renal = test system: RXF 393 renal
PC-3 prostate = test system: PC-3 prostate
786-0 renal = test system: 786-0 renal
HCT-116 colon = test system: HCT-116 colon
HCC-2998 colon = test system: HCC-2998 colon
LOX IMVI melanoma = test system: LOX IMVI melanoma
OVCAR-5 ovarian = test system: OVCAR-5 ovarian
ACHN renal = test system: ACHN renal
SF-295 CNS = test system: SF-295 CNS
SF-539 CNS = test system: SF-539 CNS
HCT-15 colon = test system: HCT-15 colon
MALME-3M melanoma = test system: MALME-3M melanoma
NCI-H522 lung = test system: NCI-H522 lung
UACC-257 melanoma = test system: UACC-257 melanoma
CAKI-1 renal = test system: CAKI-1 renal
NCI/ADR-RES ovarian = test system: NCI/ADR-RES ovarian
NCI-H23 lung = test system: NCI-H23 lung
MDA-MB-231 breast = test system: MDA-MB-231 breast
KM12 colon = test system: KM12 colon
BT-549 breast = test system: BT-549 breast
SK-OV-3 ovarian = test system: SK-OV-3 ovarian
M14 melanoma = test system: M14 melanoma
NCI-H226 lung = test system: NCI-H226 lung
COLO 205 colon = test system: COLO 205 colon
EKVX NSCLC = test system: EKVX NSCLC
OVCAR-3 ovarian = test system: OVCAR-3 ovarian
MDA-MB-435 = test system: MDA-MB-435
SK-MEL-2 melanoma = test system: SK-MEL-2 melanoma
CCRF-CEM leukemia = test system: CCRF-CEM leukemia
SK-MEL-28 melanoma = test system: SK-MEL-28 melanoma
HS 578T breast = test system: HS 578T breast
HT29 colon = test system: HT29 colon
HL-60(TB) leukemia = test system: HL-60(TB) leukemia
SN12C renal = test system: SN12C renal
RPMI-8226 leukemia = test system: RPMI-8226 leukemia
SW-620 colon = test system: SW-620 colon
K-562 leukemia = test system: K-562 leukemia
OVCAR-4 ovarian = test system: OVCAR-4 ovarian
T-47D breast = test system: T-47D breast
A498 renal = test system: A498 renal
OVCAR-8 ovarian = test system: OVCAR-8 ovarian
MOLT-4 leukemia = test system: MOLT-4 leukemia
U251 CNS = test system: U251 CNS
HOP-92 NSCLC = test system: HOP-92 NSCLC
SR leukemia = test system: SR leukemia
SNB-75 CNS = test system: SNB-75 CNS

C=CCn1c(-c2ccccc2)cs/c1=N\C(P(=O)(O)O)P(=O)(O)O
TGI (MDA-N): > 100 µM
TGI (SF-268 CNS): > 100 µM
TGI (SK-MEL-5 melanoma): > 100 µM
TGI (TK-10 renal): > 100 µM
TGI (SNB-19 CNS): > 100 µM
TGI (HOP-62 NSCLC): > 100 µM
TGI (MCF7 breast): > 100 µM
TGI (NCI-H460 lung): > 100 µM
TGI (DU-145 prostate): > 100 µM
TGI (A549 NSCLC): > 100 µM
TGI (IGROV1 ovarian): > 100 µM
TGI (UO-31 renal): > 100 µM
TGI (UACC-62 melanoma): > 100 µM
TGI (RXF 393 renal): > 100 µM
TGI (PC-3 prostate): > 100 µM
TGI (786-0 renal): > 100 µM
TGI (HCT-116 colon): > 100 µM
TGI (HCC-2998 colon): > 100 µM
TGI (LOX IMVI melanoma): > 100 µM
TGI (OVCAR-5 ovarian): > 100 µM
TGI (ACHN renal): > 100 µM
TGI (SF-295 CNS): > 100 µM
TGI (SF-539 CNS): > 100 µM
TGI (HCT-15 colon): > 100 µM
TGI (MALME-3M melanoma): > 100 µM
TGI (NCI-H522 lung): > 100 µM
TGI (UACC-257 melanoma): > 100 µM
TGI (CAKI-1 renal): > 100 µM
TGI (NCI/ADR-RES ovarian): > 100 µM
TGI (NCI-H23 lung): > 100 µM
TGI (MDA-MB-231 breast): > 100 µM
TGI (KM12 colon): > 100 µM
TGI (BT-549 breast): > 100 µM
TGI (SK-OV-3 ovarian): > 100 µM
TGI (M14 melanoma): > 100 µM
TGI (NCI-H226 lung): > 100 µM
TGI (COLO 205 colon): > 100 µM
TGI (EKVX NSCLC): > 100 µM
TGI (OVCAR-3 ovarian): > 100 µM

CC(=O)N1CC(C)(C)c2c1cc(C)c(O)c2C
TGI (MDA-N): > 100 µM
TGI (MDA-MB-435): > 100 µM
TGI (SK-MEL-2 melanoma): > 100 µM
TGI (CCRF-CEM leukemia): > 100 µM
TGI (SF-268 CNS): > 100 µM
TGI (SK-MEL-5 melanoma): > 100 µM
TGI (TK-10 renal): > 100 µM
TGI (SK-MEL-28 melanoma): > 100 µM
TGI (HS 578T breast): > 100 µM
TGI (SNB-19 CNS): > 100 µM
TGI (HOP-62 NSCLC): > 100 µM
TGI (HT29 colon): > 100 µM
TGI (MCF7 breast): > 100 µM
TGI (NCI-H460 lung): > 100 µM
TGI (HL-60(TB) leukemia): > 100 µM
TGI (DU-145 prostate): > 100 µM
TGI (A549 NSCLC): > 100 µM
TGI (IGROV1 ovarian): > 100 µM
TGI (SN12C renal): > 100 µM
TGI (UO-31 renal): > 100 µM
TGI (RPMI-8226 leukemia): > 100 µM
TGI (UACC-62 melanoma): > 100 µM
TGI (SW-620 colon): > 100 µM
TGI (RXF 393 renal): > 100 µM
TGI (K-562 leukemia): > 100 µM
TGI (PC-3 prostate): > 100 µM
TGI (786-0 renal): > 100 µM
TGI (OVCAR-4 ovarian): > 100 µM
TGI (HCT-116 colon): > 100 µM
TGI (HCC-2998 colon): > 100 µM
TGI (LOX IMVI melanoma): > 100 µM
TGI (OVCAR-5 ovarian): > 100 µM
TGI (ACHN renal): > 100 µM
TGI (SF-295 CNS): > 100 µM
TGI (SF-539 CNS): > 100 µM
TGI (HCT-15 colon): > 100 µM
TGI (NCI-H522 lung): > 100 µM
TGI (T-47D breast): > 100 µM
TGI (UACC-257 melanoma): > 100 µM
TGI (NCI/ADR-RES ovarian): > 100 µM
TGI (A498 renal): > 100 µM
TGI (NCI-H23 lung): > 100 µM
TGI (OVCAR-8 ovarian): > 100 µM
TGI (MDA-MB-231 breast): > 100 µM
TGI (MOLT-4 leukemia): > 100 µM
TGI (KM12 colon): > 100 µM
TGI (SK-OV-3 ovarian): > 100 µM
TGI (U251 CNS): > 100 µM
TGI (M14 melanoma): > 100 µM
TGI (NCI-H226 lung): > 100 µM
TGI (COLO 205 colon): > 100 µM
TGI (EKVX NSCLC): > 100 µM
TGI (OVCAR-3 ovarian): > 100 µM

c1ccc2[nH]c(SSc3nc4ncncc4[nH]3)nc2c1
GI50 (HOP-92 NSCLC): 0.375 µM
TGI (HOP-92 NSCLC): > 90.8 µM
GI50 (MDA-MB-435): 0.446 µM
TGI (MDA-MB-435): > 100 µM
GI50 (SK-MEL-2 melanoma): 2.72 µM
TGI (SK-MEL-2 melanoma): > 100 µM
GI50 (CCRF-CEM leukemia): 1.37 µM
TGI (CCRF-CEM leukemia): > 100 µM
GI50 (SF-268 CNS): 4.13 µM
TGI (SF-268 CNS): > 100 µM
GI50 (SK-MEL-5 melanoma): 3.62 µM
TGI (SK-MEL-5 melanoma): > 100 µM
GI50 (TK-10 renal): 0.364 µM
TGI (TK-10 renal): > 37.3 µM
GI50 (SK-MEL-28 melanoma): 27.8 µM
TGI (SK-MEL-28 melanoma): > 100 µM
GI50 (HS 578T breast): 8.92 µM
TGI (HS 578T breast): > 100 µM
GI50 (SNB-19 CNS): 64.5 µM
TGI (SNB-19 CNS): > 100 µM
GI50 (HOP-62 NSCLC): 0.427 µM
TGI (HOP-62 NSCLC): > 100 µM
GI50 (HT29 colon): 2.58 µM
TGI (HT29 colon): > 100 µM
GI50 (MCF7 breast): 0.295 µM
GI50 (NCI-H460 lung): 4.48 µM
TGI (NCI-H460 lung): > 100 µM
GI50 (HL-60(TB) leukemia): 0.71 µM
TGI (HL-60(TB) leukemia): > 100 µM
GI50 (DU-145 prostate): 0.674 µM
TGI (DU-145 prostate): > 100 µM
GI50 (A549 NSCLC): 19.4 µM
TGI (A549 NSCLC): > 100 µM
GI50 (IGROV1 ovarian): 4.48 µM
TGI (IGROV1 ovarian): 96.2 µM
GI50 (SN12C renal): 5.38 µM
TGI (SN12C renal): > 100 µM
GI50 (UO-31 renal): 0.559 µM
TGI (UO-31 renal): > 30.9 µM
GI50 (RPMI-8226 leukemia): 0.709 µM
TGI (RPMI-8226 leukemia): > 100 µM
GI50 (UACC-62 melanoma): 0.729 µM
TGI (UACC-62 melanoma): > 100 µM
GI50 (SW-620 colon): 3.24 µM
TGI (SW-620 colon): > 100 µM
GI50 (RXF 393 renal): 32.1 µM
TGI (RXF 393 renal): > 100 µM
GI50 (K-562 leukemia): 0.278 µM
TGI (K-562 leukemia): > 100 µM
GI50 (PC-3 prostate): 5.37 µM
TGI (PC-3 prostate): > 100 µM
GI50 (786-0 renal): 0.463 µM
TGI (786-0 renal): > 100 µM
GI50 (OVCAR-4 ovarian): 3.64 µM
TGI (OVCAR-4 ovarian): > 100 µM
GI50 (HCT-116 colon): 0.913 µM
TGI (HCT-116 colon): > 100 µM
GI50 (HCC-2998 colon): 1.9 µM
TGI (HCC-2998 colon): > 100 µM
GI50 (LOX IMVI melanoma): 0.279 µM
TGI (LOX IMVI melanoma): > 44.6 µM
GI50 (OVCAR-5 ovarian): 13 µM
TGI (OVCAR-5 ovarian): > 100 µM
GI50 (ACHN renal): 4.14 µM
TGI (ACHN renal): > 100 µM
GI50 (SF-295 CNS): 0.457 µM
GI50 (SF-539 CNS): 0.989 µM
TGI (SF-539 CNS): > 100 µM
GI50 (HCT-15 colon): 3.25 µM
TGI (HCT-15 colon): > 100 µM
GI50 (MALME-3M melanoma): 2.01 µM
TGI (MALME-3M melanoma): > 66.1 µM
GI50 (SR leukemia): 0.551 µM
TGI (SR leukemia): > 100 µM
GI50 (NCI-H522 lung): 0.383 µM
GI50 (T-47D breast): 0.489 µM
TGI (T-47D breast): 98.9 µM
GI50 (UACC-257 melanoma): 4.97 µM
TGI (UACC-257 melanoma): > 75.2 µM
GI50 (CAKI-1 renal): 0.212 µM
TGI (CAKI-1 renal): 3.77 µM
GI50 (NCI/ADR-RES ovarian): 1.74 µM
TGI (NCI/ADR-RES ovarian): > 100 µM
GI50 (A498 renal): 8.11 µM
TGI (A498 renal): > 91.1 µM
GI50 (NCI-H23 lung): 2.9 µM
TGI (NCI-H23 lung): > 100 µM
GI50 (OVCAR-8 ovarian): 3.32 µM
TGI (OVCAR-8 ovarian): > 100 µM
GI50 (MDA-MB-231 breast): 2.9 µM
TGI (MDA-MB-231 breast): > 100 µM
GI50 (MOLT-4 leukemia): 0.486 µM
TGI (MOLT-4 leukemia): > 100 µM
GI50 (SNB-75 CNS): 13.1 µM
TGI (SNB-75 CNS): > 100 µM
GI50 (KM12 colon): 3.85 µM
TGI (KM12 colon): > 100 µM
GI50 (BT-549 breast): 2.89 µM
TGI (BT-549 breast): > 100 µM
GI50 (SK-OV-3 ovarian): 0.37 µM
TGI (SK-OV-3 ovarian): 34.2 µM
GI50 (U251 CNS): 8.63 µM
TGI (U251 CNS): > 100 µM
GI50 (M14 melanoma): 0.347 µM
TGI (M14 melanoma): 82.1 µM
GI50 (NCI-H226 lung): 9.52 µM
TGI (NCI-H226 lung): > 100 µM
GI50 (COLO 205 colon): 2.59 µM
TGI (COLO 205 colon): 10.2 µM
GI50 (EKVX NSCLC): 25.9 µM
TGI (EKVX NSCLC): > 100 µM
GI50 (OVCAR-3 ovarian): 0.579 µM
TGI (OVCAR-3 ovarian): > 100 µM
